Measurements: patent US20150239889A1, “PYRAZOLOPYRIMIDINE COMPOUND” (MITSUBISHI TANABE PHARMA CORPORATION, priority 2012, published 2015)

Legend:
[1] = molecular target: T1, human HIF-PHD2 (Homo sapiens, UniProt Q9GZT9); assay: HIF-PHD inhibition assay (fluorescence polarization), human HIF-PHD2; assay type: biochemical; details: 2-oxoglutaric acid 3.33 μmol/L
T1 construct: purchased CrystalGenomics Ltd
How it was run: (§1)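 A 5′-fluoresceinamide-labelled substrate with aminocaproic acid linker is used. Enzyme activity is computed by subtracting pre-enzyme polarization from post-enzyme polarization, expressed in mP.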

[2] = molecular target: T2, human HIF-PHD3 (Homo sapiens, UniProt Q9H6Z9); assay: HIF-PHD inhibition assay (fluorescence polarization), human HIF-PHD3; assay type: biochemical; details: 2-oxoglutaric acid 166 μmol/L
T2 construct: purchased CrystalGenomics Ltd
How it was run: as §1

[3] = test system: Hep3B cells; assay: EPO production assay (ELISA of culture supernatant); assay type: cell-based; details: Homo sapiens, 3 μmol/L test compound, 48 hours, relative to control (0.1% DMSO), read-out: EPO production stimulation rate with 3 μmol/L test compound
Description: The stimulatory effect of the compound onEPO production was determined as follows using Hep3B cells.
Cells were seeded on 96 well plates at 40000 cells/well, and the plate was incubated overnight in MEM medium containing 10% fetal bovine serum (FBS) at 37° C. under 5% CO2. The next day, the medium was replaced with MEM containing 0.5% FBS, followed by addition of test compound. The test compound was dissolved in dimethyl sulfoxide and added to the cell so that the final concentration of dimethyl sulfoxide was 0.1%. After incubation for additional 48 hours, the culture supernatant was collected, and EPO contained in the supernatant was determined using ELISA kit (EPO ELISA Kit 11-693-417-001, Roche Co.). The results were expressed as stimulation rate of EPO production (fold), which was calculated as the relative value of the EPO production with 3 μmol/L of the test compound compared to the EPO production without stimulation (control).
Stimulation rate of EPO production (fold)=(EPO production with addition of test compound)/(EPO production of control)

T1 sequence (Q9GZT9 2-426 limits assumed): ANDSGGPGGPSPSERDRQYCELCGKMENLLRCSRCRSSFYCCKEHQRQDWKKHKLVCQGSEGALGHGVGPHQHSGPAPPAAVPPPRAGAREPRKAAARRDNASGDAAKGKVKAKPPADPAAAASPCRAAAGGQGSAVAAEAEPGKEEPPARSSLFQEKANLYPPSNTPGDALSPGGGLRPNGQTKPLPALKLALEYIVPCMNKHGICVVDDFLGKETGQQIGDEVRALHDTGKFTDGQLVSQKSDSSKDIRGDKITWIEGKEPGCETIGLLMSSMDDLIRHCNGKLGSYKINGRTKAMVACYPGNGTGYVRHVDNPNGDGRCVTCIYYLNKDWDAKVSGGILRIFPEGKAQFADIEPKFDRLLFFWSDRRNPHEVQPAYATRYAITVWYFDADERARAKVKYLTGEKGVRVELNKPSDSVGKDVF
T2 sequence (Q9H6Z9 whole entry): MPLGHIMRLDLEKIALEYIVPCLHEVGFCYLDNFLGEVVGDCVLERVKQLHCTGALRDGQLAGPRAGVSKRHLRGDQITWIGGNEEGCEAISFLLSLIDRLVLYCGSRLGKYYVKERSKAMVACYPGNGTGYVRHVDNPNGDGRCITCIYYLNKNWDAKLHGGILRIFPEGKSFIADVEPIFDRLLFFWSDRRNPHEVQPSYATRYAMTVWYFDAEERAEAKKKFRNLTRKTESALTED

Cc1ccc(C(C(C)C)n2ncc3nc(-n4cc(C(=O)O)cn4)nc(O)c32)cc1 (single isomer, unassigned) [Example 26]
IC50 [1]: 66 nM
IC50 [2]: 1500 nM
fold induction at 3 µM [3]: 3.4

CCC(c1ccc(Cl)cc1)n1ncc2nc(-n3cc(C(=O)O)cn3)nc(O)c21 (single isomer, unassigned) [Example 323]
IC50 [1]: 22 nM
IC50 [2]: 300 nM
fold induction at 3 µM [3]: 3.8

CCC(c1ccc(C(F)(F)F)cc1)n1ncc2nc(-n3cc(C(=O)O)cn3)nc(O)c21 (single isomer, unassigned) [Example 327]
IC50 [1]: 290 nM
IC50 [2]: 1200 nM
fold induction at 3 µM [3]: 9.4

O=C(O)c1cnn(-c2nc3cnn(Cc4ccc(Cl)c(Cl)c4)c3c(=O)[nH]2)c1 [Example 1, 1-[1-(3,4-dichlorobenzyl)-7-hydroxy-1H-pyrazolo[4,3-d]pyrimidin-5-yl]-1H-pyrazole-4-carboxylic acid]
IC50 [2]: 160 nM
fold induction at 3 µM [3]: 4.6

COc1ccc(Cn2ncc3nc(-n4cc(C(=O)O)cn4)nc(O)c32)cc1 [Example 3]
IC50 [1]: 31 nM
IC50 [2]: 160 nM
fold induction at 3 µM [3]: 2.1

O=C(O)c1cnn(-c2nc(O)c3c(cnn3Cc3cc(C(F)(F)F)cc(Cl)c3F)n2)c1 [Example 4]
IC50 [1]: 27 nM
IC50 [2]: 780 nM
fold induction at 3 µM [3]: 1.7

O=C(O)c1cnn(-c2nc(O)c3c(cnn3Cc3ccc(Cl)cc3F)n2)c1 [Example 5]
IC50 [1]: 130 nM
IC50 [2]: 740 nM
fold induction at 3 µM [3]: 2.9

O=C(O)c1cnn(-c2nc(O)c3c(cnn3Cc3ccc(C(F)(F)F)c(Cl)c3)n2)c1 [Example 6]
IC50 [1]: 41 nM
IC50 [2]: 130 nM
fold induction at 3 µM [3]: 6.1

O=C(O)c1cnn(-c2nc(O)c3c(cnn3Cc3ccc(Cl)c(F)c3)n2)c1 [Example 7]
IC50 [1]: 23 nM
IC50 [2]: 320 nM
fold induction at 3 µM [3]: 3.4

O=C(O)c1cnn(-c2nc(O)c3c(cnn3Cc3cc(F)cc(C(F)(F)F)c3)n2)c1 [Example 8]
IC50 [1]: 48 nM
IC50 [2]: 560 nM
fold induction at 3 µM [3]: 5.4

O=C(O)c1cnn(-c2nc(O)c3c(cnn3Cc3cccc(C(F)(F)F)c3)n2)c1 [Example 9]
IC50 [1]: 33 nM
IC50 [2]: 410 nM
fold induction at 3 µM [3]: 2.8

O=C(O)c1cnn(-c2nc(O)c3c(cnn3Cc3ccc(F)c(Cl)c3)n2)c1 [Example 10]
IC50 [1]: 22 nM
IC50 [2]: 240 nM
fold induction at 3 µM [3]: 3.4

O=C(O)c1cnn(-c2nc(O)c3c(cnn3Cc3cccc(OC(F)(F)F)c3)n2)c1 [Example 11]
IC50 [1]: 62 nM
IC50 [2]: 470 nM
fold induction at 3 µM [3]: 2.5

O=C(O)c1cnn(-c2nc(O)c3c(cnn3Cc3ccc(F)c(C(F)(F)F)c3)n2)c1 [Example 12]
IC50 [1]: 44 nM
IC50 [2]: > 3000 nM
fold induction at 3 µM [3]: 2.3

O=C(O)c1cnn(-c2nc(O)c3c(cnn3Cc3ccc(Cl)cc3)n2)c1 [Example 13]
IC50 [1]: 20 nM
IC50 [2]: 230 nM
fold induction at 3 µM [3]: 4.3

C[C@H](c1ccc(Cl)c(Cl)c1)n1ncc2nc(-n3cc(C(=O)O)cn3)nc(O)c21 [Example 22]
IC50 [2]: 540 nM
fold induction at 3 µM [3]: 6.9

C[C@@H](c1ccc(Cl)c(Cl)c1)n1ncc2nc(-n3cc(C(=O)O)cn3)nc(O)c21 [Example 23]
IC50 [2]: 220 nM
fold induction at 3 µM [3]: 3.2

O=C(O)c1cnn(-c2nc3cnn(Cc4ccc(-c5ccccc5)cc4)c3c(=O)[nH]2)c1 [Example 55]
IC50 [2]: 24 nM
fold induction at 3 µM [3]: 34

O=C(O)c1cnn(-c2nc3cnn(Cc4ccc(-c5ccccc5F)c(F)c4)c3c(=O)[nH]2)c1 [Example 93]
IC50 [2]: 130 nM
fold induction at 3 µM [3]: 23

Cc1ccc(C(C)(C)Cn2ncc3nc(-n4cc(C(=O)O)cn4)nc(O)c32)cc1 [Example 119]
IC50 [1]: 240 nM
fold induction at 3 µM [3]: 3.7

Cc1nn(CC2CCCCC2)c2c(O)nc(-n3cc(C(=O)O)cn3)nc12 [Example 230]
IC50 [1]: 83 nM
fold induction at 3 µM [3]: 2

O=C(O)c1cnn(-c2nc3cn(Cc4ccc(-c5ccccc5)cc4)nc3c(=O)[nH]2)c1 [Example 237]
IC50 [2]: 38 nM
fold induction at 3 µM [3]: 4.3

Cc1nn([C@@H](C)c2cc(F)ccc2F)c2c(O)nc(-n3cc(C(=O)O)cn3)nc12 [Example 453]
IC50 [1]: 250 nM
IC50 [2]: 1500 nM

CC[C@@H](c1ccc(Cl)c(Cl)c1)n1nc(C)c2nc(-n3cc(C(=O)O)cn3)nc(O)c21 [Example 455]
IC50 [1]: 65 nM
IC50 [2]: 790 nM

C[C@@H](c1ccc(C(F)(F)F)cc1)n1nc(C2CC2)c2nc(-n3cc(C(=O)O)cn3)nc(O)c21 [Example 456]
IC50 [1]: 53 nM
IC50 [2]: 430 nM

C[C@@H](c1ccc(F)cc1)n1nc(C2CC2)c2nc(-n3cc(C(=O)O)cn3)nc(O)c21 [Example 457]
IC50 [1]: 110 nM
IC50 [2]: 710 nM

C[C@@H](c1cccc(F)c1)n1nc(C2CC2)c2nc(-n3cc(C(=O)O)cn3)nc(O)c21 [Example 458]
IC50 [1]: > 300 nM
IC50 [2]: 1100 nM

C[C@@H](c1ccc(F)c(F)c1)n1nc(C2CC2)c2nc(-n3cc(C(=O)O)cn3)nc(O)c21 [Example 459]
IC50 [1]: 110 nM
IC50 [2]: 430 nM

C[C@@H](c1cc(F)ccc1F)n1nc(C2CC2)c2nc(-n3cc(C(=O)O)cn3)nc(O)c21 [Example 461]
IC50 [1]: 230 nM
IC50 [2]: 1600 nM

C[C@@H](c1ccc(F)c(Cl)c1)n1nc(C2CC2)c2nc(-n3cc(C(=O)O)cn3)nc(O)c21 [Example 462]
IC50 [1]: 81 nM
IC50 [2]: 990 nM

C[C@@H](c1ccc(C(F)(F)F)cc1)n1nc(C(F)(F)F)c2nc(-n3cc(C(=O)O)cn3)nc(O)c21 [Example 463]
IC50 [1]: 65 nM
IC50 [2]: 930 nM

O=C(O)c1cnn(-c2nc(O)c3c(n2)c(F)nn3CC2CCCCCC2)c1 [Example 464]
IC50 [1]: 17 nM
IC50 [2]: 440 nM

C[C@H](C1CCCCC1)n1nc(F)c2nc(-n3cc(C(=O)O)cn3)nc(O)c21 [Example 469]
IC50 [1]: 76 nM
IC50 [2]: 1200 nM

Cc1nn(CC2CCC(F)(F)CC2)c2c(O)nc(-n3cc(C(=O)O)cn3)nc12 [Example 475]
IC50 [1]: 34 nM
IC50 [2]: 270 nM

C[C@H]1CC[C@H](n2nc(F)c3nc(-n4cc(C(=O)O)cn4)nc(O)c32)CC1 [Example 479]
IC50 [1]: 42 nM
IC50 [2]: 260 nM

CC[C@H]1CC[C@H](n2nc(F)c3nc(-n4cc(C(=O)O)cn4)nc(O)c32)CC1 [Example 480]
IC50 [1]: 47 nM
IC50 [2]: 670 nM

CC1(C)CCC(n2nc(F)c3nc(-n4cc(C(=O)O)cn4)nc(O)c32)CC1 [Example 481]
IC50 [1]: 71 nM
IC50 [2]: 480 nM

O=C(O)c1cnn(-c2nc(O)c3c(n2)c(F)nn3C2CCCCCCC2)c1 [Example 482]
IC50 [1]: 43 nM
IC50 [2]: 1300 nM

Cc1nn([C@H]2CC[C@H](C)CC2)c2c(O)nc(-n3cc(C(=O)O)cn3)nc12 [Example 483]
IC50 [1]: 110 nM
IC50 [2]: 1200 nM

Cn1ncc2nc(-n3cc(C(=O)O)cn3)nc(O)c21 [Example 485]
IC50 [1]: 140 nM
IC50 [2]: > 3000 nM

CC(C)n1ncc2nc(-n3cc(C(=O)O)cn3)nc(O)c21 [Example 486]
IC50 [1]: 120 nM
IC50 [2]: 2200 nM

CCC(CC)n1ncc2nc(-n3cc(C(=O)O)cn3)nc(O)c21 [Example 487]
IC50 [1]: 81 nM
IC50 [2]: 530 nM

CCCC(CCC)n1ncc2nc(-n3cc(C(=O)O)cn3)nc(O)c21 [Example 488]
IC50 [1]: 59 nM
IC50 [2]: 840 nM

CC(C)C(C(C)C)n1ncc2nc(-n3cc(C(=O)O)cn3)nc(O)c21 [Example 489]
IC50 [1]: 150 nM
IC50 [2]: 900 nM

CC(C)CC(CC(C)C)n1ncc2nc(-n3cc(C(=O)O)cn3)nc(O)c21 [Example 490]
IC50 [1]: 94 nM
IC50 [2]: 1100 nM

CC(C)(C)Cn1ncc2nc(-n3cc(C(=O)O)cn3)nc(O)c21 [Example 491]
IC50 [1]: 99 nM
IC50 [2]: 630 nM

CCC(C)(C)Cn1ncc2nc(-n3cc(C(=O)O)cn3)nc(O)c21 [Example 492]
IC50 [1]: 110 nM
IC50 [2]: 440 nM

CCC(CC)Cn1ncc2nc(-n3cc(C(=O)O)cn3)nc(O)c21 [Example 494]
IC50 [1]: 89 nM
IC50 [2]: 870 nM

CC(C)C[C@H](C)n1ncc2nc(-n3cc(C(=O)O)cn3)nc(O)c21 [Example 496]
IC50 [1]: 41 nM
IC50 [2]: 530 nM

CCCC[C@H](C)n1ncc2nc(-n3cc(C(=O)O)cn3)nc(O)c21 [Example 497]
IC50 [1]: 52 nM
IC50 [2]: 890 nM

CC(C)(C)Cn1nc(F)c2nc(-n3cc(C(=O)O)cn3)nc(O)c21 [Example 499]
IC50 [1]: 130 nM
IC50 [2]: 760 nM

Cc1nn(CC(C)(C)C)c2c(O)nc(-n3cc(C(=O)O)cn3)nc12 [Example 500]
IC50 [1]: > 300 nM
IC50 [2]: 750 nM

Cn1nc(C2CCCCC2)c2nc(-n3cc(C(=O)O)cn3)nc(O)c21 [Example 501]
IC50 [1]: > 300 nM
IC50 [2]: > 3000 nM

Cn1nc(-c2ccccc2)c2nc(-n3cc(C(=O)O)cn3)nc(O)c21 [Example 502]
IC50 [1]: > 300 nM
IC50 [2]: 1200 nM

Cn1nc(Cc2ccccc2)c2nc(-n3cc(C(=O)O)cn3)nc(O)c21 [Example 503]
IC50 [1]: > 300 nM
IC50 [2]: > 3000 nM

C[C@@H](c1ccc(F)cc1Cl)n1cc2nc(-n3cc(C(=O)O)cn3)nc(O)c2n1 [Example 505]
IC50 [1]: 51 nM
IC50 [2]: 440 nM
